This note sets out measurements from patent US20250092035A1, “ISOCITRATE DEHYDROGENASE 1 INHIBITORS AND METHODS OF USE THEREOF” (THE WISTAR INSTITUTE OF ANATOMY AND BIOLOGY, priority 2022, published 2025).

One data set concerns the target T1, wtIDH2 (Homo sapiens, UniProt P48735).
T1 construct: endogenous in cells; host or cells: MiaPaCa-2 pancreatic cancer cells (IDH1 silenced by siRNA)
T1 sequence (P48735 40-452): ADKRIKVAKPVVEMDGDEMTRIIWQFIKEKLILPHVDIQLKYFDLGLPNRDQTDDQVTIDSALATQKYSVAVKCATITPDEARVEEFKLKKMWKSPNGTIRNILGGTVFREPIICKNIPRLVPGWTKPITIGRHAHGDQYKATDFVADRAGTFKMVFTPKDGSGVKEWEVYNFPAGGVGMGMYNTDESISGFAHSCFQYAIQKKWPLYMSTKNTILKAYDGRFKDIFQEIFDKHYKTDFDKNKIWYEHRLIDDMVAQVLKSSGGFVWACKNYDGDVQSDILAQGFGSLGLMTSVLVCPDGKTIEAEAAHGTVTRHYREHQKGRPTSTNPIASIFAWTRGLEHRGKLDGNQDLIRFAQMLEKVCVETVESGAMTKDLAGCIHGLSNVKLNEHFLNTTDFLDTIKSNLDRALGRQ
In words: Cell-based IDH2 activity in MiaPaCa-2 PC cells. The protocol: (§1) IDH activity assay. Cell-based wtIDH activity is measured by quantitation of IDH-dependent NADPH synthesis (Abcam, ab 102528). The reaction measures the activity of both IDH1 and IDH2 isoenzymes. IDH1 activity is specifically measured using the same assay after transient siRNA silencing of IDH2 (Extended Data FIG. 6i). The opposite approach is used to estimate IDH2 activity. All readouts were normalized to cell number. Cell-free wtIDH1 activity was performed by a fluorometric assay measuring NADPH levels at 355/460 nm. The assay contained 0.25 nM human recombinant IDH1 (RD systems), 30 μM isocitrate, and 30 μM NADP^+ in 20 μL of 100 mM Tris-HCL, pH8, 0.2 mM DTT, 0.05% CHAPS, and MgCl2 at the indicated levels. Formation of NADPH was measured over 40 min at 5 min intervals.

The target of data set [1] is T2, IDH1 protein in MiaPaCa-2 PC cells (Homo sapiens, UniProt O75874).
T2 construct: endogenous in cells; host or cells: MiaPaCa-2 pancreatic cancer cells
T2 sequence (O75874 2-414 limits assumed): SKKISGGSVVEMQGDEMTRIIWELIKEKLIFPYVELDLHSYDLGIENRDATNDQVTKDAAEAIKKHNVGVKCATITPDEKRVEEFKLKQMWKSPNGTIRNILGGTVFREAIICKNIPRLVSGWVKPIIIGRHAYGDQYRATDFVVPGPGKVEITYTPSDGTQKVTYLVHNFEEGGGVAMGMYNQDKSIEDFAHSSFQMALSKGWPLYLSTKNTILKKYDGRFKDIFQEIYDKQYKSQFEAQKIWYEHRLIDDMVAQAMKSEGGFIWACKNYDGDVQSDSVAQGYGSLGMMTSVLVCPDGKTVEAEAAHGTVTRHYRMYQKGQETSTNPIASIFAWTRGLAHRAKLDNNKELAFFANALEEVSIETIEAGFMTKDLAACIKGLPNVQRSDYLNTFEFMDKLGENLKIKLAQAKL
In words: Cellular thermal shift assay. To be noted: 1 μM. It counts as cell-based. The protocol: Cellular Thermal Shift assay. Thermal shift experiments were performed as previously described (72). Briefly, cells were cultured in media containing the indicated experimental concentrations of MgSO4 under standard conditions (25 mM glucose, 4 mM glutamine and 10% FBS) for 24 hours. […] Cells were then trypsinized, washed with PBS, suspended in PBS (containing protease inhibitors), lysed through three freeze-thaw cycles at liquid nitrogen−37° C., and then heated at the indicated temperatures for three minutes. Preparations were spun down at 13,000 rpm for 10 min at 4° C. to remove denatured proteins, and supernatants were loaded on a Western blot gel. Western blots were performed as described.

A further data set deals with MiaPaCa-2 PC cells. In words: ROS levels (DCFDA assay). It counts as cell-based, human. Here is the method:
ROS and 8-OHdG quantification. Cells were incubated in a 96-well plate with 10 μM H2-DCFDA (Life Technology, D399) for 45 min in serum-free media to detect total intracellular ROS. For mitochondrial-specific ROS, cells were incubated with 5 μM MitoSOX Red (Life Technologies, M36008) for 30 min in serum-free media. Cells were washed with PBS, and fluorescence measured according to manufacturer instructions using a Microplate Reader (GloMax Explorer system, Promega). 8-OHdG was measured according to the manufacturer's instructions (Abcam, AB201734). Readouts were normalized to cell number.

Data set [2] has as its system PC cells. In words: Metabolic profiling (αKG, TCA metabolites) in PC cells. It counts as cell-based, human.
The test system of data set [3] is PC cells. Briefly: Oxygen consumption rate (Seahorse). Type of data set: cell-based, human. The protocol:
Cell bioenergetic assays. Oxygen consumption rates (OCR) and extracellular acidification rates (ECAR) were measured using the Seahorse XFp Extracellular Flux Analyzer (Seahorse Bioscience) according to the manufacturer's instructions. For OCR experiments, cells were cultured in 4 mM glutamine, 5% FBS, and the indicated glucose levels for 24-36 hours. Mitochondrial membrane potential was measured with TMRE staining (Invitrogen, T669) according to the manufacturer's instructions. […] NADPH (abcam, ab65349), GSH/GSSG ratio (Promega, V6611), and ATP (abcam, 83355) measurements were performed according to the manufacturer's instructions. All readouts were normalized to cell number.

The test system of the next data set is Human PC cells. Briefly: Clonogenic growth of human PC cells. It counts as cell-based. To be noted: low Mg2+ and glucose. Here is the method:
(§2) Clonogenic assay. 1000-2000 cells per well were plated in six-well plates. Media was not changed during experiments unless indicated. […] Upon completion of the experiments, colonies were fixed in a reagent containing 80% methanol and stained with 0.5% crystal violet. To determine relative growth, dye was extracted from stained colonies with 10% acetic acid and the associated absorbance measured at 600 nm using a Microplate Reader (GloMax Explorer system, Promega).

Data set [4] concerns murine PC cells (KPC K8484). In words: IDH1 activity and clonogenic growth in murine PC cells. It counts as cell-based, mouse.
Method: IDH activity assay. […] The reaction measures the activity of both IDH1 and IDH2 isoenzymes. IDH1 activity is specifically measured using the same assay after transient siRNA silencing of IDH2 (Extended Data FIG. 6i). […] All readouts were normalized to cell number. […] Formation of NADPH was measured over 40 min at 5 min intervals.
Another data set has as its system KPC allografts. Briefly: Subcutaneous KPC allografts in nude mice. It counts as in vivo, mouse. To be noted: flanks of nude mice.
The subject of a further data set is murine PC models. In words: KPC and tamoxifen-inducible KP−/−C mouse models. Type of data set: in vivo. To be noted: two difficult-to-treat murine PC models.
The next data set has as its system HCT116 cells. Briefly: Clonogenic growth of colon cancer cells. It counts as cell-based, human. To be noted: low Mg2+ and glucose. The protocol: as §2
The subject of a further data set is MiaPaCa-2 cells. To be noted: PC cells.
A further data set concerns the target IDH1 (Homo sapiens, UniProt O75874). In words: Cell-free wtIDH1 activity (fluorometric NADPH). Type of data set: biochemical. Further details: purchased RD systems. To be noted: Mg2+ reduced to 0.1 mM. Here is the method:
as §1

Data set [5] concerns wtIDH1 pancreatic cancer (MiaPaCa-2, PANC-1, PDX TM01212). In words: Human PC xenografts and PDX in nude mice.
Method: (§3) In vivo studies. […] Mice were maintained under pathogen-free conditions in the animal facility. No additional food or nutrient-contained bedding provided to the animals during these studies. […] Mice with subcutaneous PDX were purchased from The Jackson Laboratory (#TM01212). […] For flank xenograft experiments, 1×10^6 cells were suspended in 200 μL of a PBS:matrigel solution (1:1) and injected subcutaneously into the right flank of mice. […] Equal number of male and female mice were used. […] For the indicated experiments, hyperglycemia was induced by allowing mice to drink high glucose content water (30% dextrose; abbreviated as D30 water) starting two weeks before cancer cell implantation. […] An equal volume of vehicle was administrated to control mice. NAC water (1.2 g/L) was refreshed twice weekly for the indicated experiments. A high magnesium diet, magnesium sulfate water (MgSO4, 1.5 g/L) was used for the indicated experiments. For all flank xenograft experiments, tumor volumes were measured twice per week using a caliper (volume=length×width^2/2). Upon termination of animal experiments, mice were euthanized using carbon dioxide inhalation followed by cervical dislocation, and tumors were harvested. Body weights were measured once weekly for the indicated time.

Sequence of IDH1 (O75874 whole entry): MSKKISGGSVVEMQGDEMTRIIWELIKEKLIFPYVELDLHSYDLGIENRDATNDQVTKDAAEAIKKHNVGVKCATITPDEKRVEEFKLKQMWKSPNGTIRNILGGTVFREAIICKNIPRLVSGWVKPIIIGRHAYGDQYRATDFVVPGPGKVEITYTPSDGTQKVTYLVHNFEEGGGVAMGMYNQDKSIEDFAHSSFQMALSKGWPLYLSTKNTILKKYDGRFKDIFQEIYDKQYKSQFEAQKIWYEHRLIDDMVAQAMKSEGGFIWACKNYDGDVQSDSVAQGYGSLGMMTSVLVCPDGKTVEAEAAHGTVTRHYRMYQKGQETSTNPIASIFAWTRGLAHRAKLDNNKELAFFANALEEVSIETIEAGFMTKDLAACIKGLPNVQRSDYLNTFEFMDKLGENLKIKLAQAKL
Method for KPC allografts: as §3
From the text for murine PC models: In vivo studies. […] Mice were maintained under pathogen-free conditions in the animal facility. No additional food or nutrient-contained bedding provided to the animals during these studies. […] Mice on a mixed background were bred in-house at the CRUK Beatson Institute and maintained in conventional caging with environmental enrichment, access to standard chow and water ad libitum. […] Mice were monitored 3 times weekly and when a diagnosis of pancreatic cancer was made by abdominal palpation, this was confirmed by high-resolution ultrasound imaging, using the VisualSonics Vevo 3100 preclinical imaging platform (FUJIFILM VisualSonics, Toronto, Canada). Anesthesia was induced and maintained with a mixture of isoflurane and medical air. Mice were imaged weekly to monitor tumor progression and tumor volume was assessed for each mouse and plotted longitudinally. […] Tamoxifen dissolved in corn oil at 20 mg/ml, and animals received tamoxifen (75 mg/kg, IP administration, once daily) for six consecutive days. For flank xenograft experiments, 1×10^6 cells were suspended in 200 μL of a PBS:matrigel solution (1:1) and injected subcutaneously into the right flank of mice. […] For all flank xenograft experiments, tumor volumes were measured twice per week using a caliper (volume=length×width^2/2). […] Body weights were measured once weekly for the indicated time. […]

As to `N#Cc1ccnc(N2C(=O)CC[C@H]2C(=O)N(c2cncc(F)c2)[C@H](C(=O)NC2CC(F)(F)C2)c2ccccc2Cl)c1` [AG-120, ivosidenib], the “inhibitory activity against wtIDH2” value against wtIDH2 is listed as “no inhibitory activity”. Also, the “thermal stabilization of IDH1” value in [1] (higher Mg2+ levels) is recorded as “no effect”; in data set [1] (low Mg2+ concentrations), “stabilized the protein”. In addition, the “intracellular ROS” value in the data set on MiaPaCa-2 PC cells (higher Mg2+ levels) is recorded as “No such effect”; in the data set with MiaPaCa-2 PC cells (low Mg2+ combined with low glucose) it was “surge in intracellular ROS”. Also, the TCA metabolite levels entry in the data set on PC cells [2] (low glucose and Mg2+) is given as “reduced TCA metabolites levels”. The αKG levels result in the data set with PC cells [2] (low glucose conditions) is “reduced αKG levels”. Moreover, the oxygen consumption entry with PC cells [3] (low Mg2+ and glucose) is given as “severely impaired oxygen consumption”; with PC cells [3] (standard Mg2+ and low glucose) it was “no effect on oxygen consumption”. In addition, in the data set on Human PC cells, the cell survival result is on record as “markedly impaired survival”. Moreover, in data set [4] (KPC K8484 cells), the “enzyme activity and cell viability” value is “reduced enzyme activity and cell viability”. Further, the “potency versus oxaliplatin at the same dose” value in [4] (nutrient deprivation) is listed as “substantially more potent”. In addition, the allograft growth entry in the data set on KPC allografts is on record as “reduced the growth of KPC allografts”. The “survival and tumor volumes” value in the data set with murine PC models was “did not reach statistical significance”. In addition, the response in culture entry in the data set with HCT116 cells is “responded to the drug”. Also, in the data set on MiaPaCa-2 cells, the “combination with chemotherapeutic agents” value is on record as “enhanced the efficacy of chemotherapeutic agents”. The “cell-free wtIDH1 activity inhibition” value on IDH1 was “highly potent”. Besides, the anti-tumor efficacy entry in [5] (150 mg/kg orally twice per day, PDX 75 mg/kg IP once daily) is reported as “highly effective as a single agent”. The tolerability entry in [5] (body weights, nude mice) is on record as “tolerated the treatment very well”.
